In US7816353B2 (Exelixis, Inc., priority 2003, dated 2010) one finds IC50 data, which are given here for 20 molecules.

Type in all cases: biochemical
The target in one assay is T1, PDK1 (Homo sapiens, UniProt O15530).
T1 construct: human PDK1 kinase domain residues M51-T359; made in house
T1 sequence (O15530 51-359): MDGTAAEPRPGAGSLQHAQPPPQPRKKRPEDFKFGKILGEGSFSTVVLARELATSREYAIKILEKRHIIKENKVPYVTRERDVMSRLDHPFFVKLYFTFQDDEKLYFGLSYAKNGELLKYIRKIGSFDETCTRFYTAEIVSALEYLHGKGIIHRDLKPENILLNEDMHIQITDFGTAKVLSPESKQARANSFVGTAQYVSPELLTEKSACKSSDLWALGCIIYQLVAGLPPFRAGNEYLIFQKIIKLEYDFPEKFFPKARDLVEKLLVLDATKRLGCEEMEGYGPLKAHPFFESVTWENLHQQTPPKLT
Briefly: PDK1 Kinase Assay (Luciferase-Coupled Chemiluminescent Kinase assay, LCCA). To be noted: human PDK1 kinase domain residues M51-T359; 0.5 μM ATP; read-out: PDK-1 IC50. The procedure:
(§1) Kinase activity and compound inhibition are investigated using one or more of the three assay formats described below. The ATP concentrations for each assay are selected to be close to the Michaelis-Menten constant (KM) for each individual kinase. Dose-response experiments are performed at 10 different inhibitor concentrations in a 384-well plate format. The data are fitted to four-parameter equation (2) below; where Y is the observed signal, X is the inhibitor concentration, Min is the background signal in the absence of enzyme (0% enzyme activity), Max is the signal in the absence of inhibitor (100% enzyme activity), IC50 is the inhibitor concentration at 50% enzyme inhibition and H represents the empirical Hill's slope to measure the cooperativity. Typically H is close to unity. Y=Min+(Max−Min)/(1+(X/IC50)^H) Equation (2) p70S6 Kinase Assay
Biochemical activity of PDK1 kinase was assessed using a Luciferase-Coupled Chemiluminescent Kinase assay (LCCA) format. Kinase activity was measured as the percent ATP remaining following the kinase reaction. Remaining ATP was detected by luciferase-luciferin-coupled chemiluminescence. Specifically, the reaction was initiated by mixing test compounds, 0.5 μM ATP, 0.6 μM PDKtide peptide and 6 nM PDK1 (baculovirus expressed human PDK1 kinase domain residues M51-T359) in a 20 uL assay buffer (20 mM Hepes pH 7.5, 1 mM CaCl2, 0.03% CHAPS, 2 mM DTT). The mixture is incubated at ambient temperature for 3 hours after which 20 μL luciferase-luciferin mix is added and the chemiluminescent signal read using a Wallac Victor2 reader. The luciferase-luciferin mix consists of 50 mM HEPES, pH 7.8, 8.5 μg/mL oxalic acid (pH 7.8), 5 (or 50) mM DTT, 0.4% Triton X-100, 0.25 mg/mL coenzyme A, 63 uM AMP, 28 μg/mL luciferin and 40,000 units/mL luciferase.

In the next assay the target is T2, Akt1 (Homo sapiens, UniProt P31749).
T2 construct: made in house
Briefly: Akt1 Kinase Assay (Luciferase-Coupled Chemiluminescent Kinase assay, LCCA). To be noted: human Akt1 kinase domain residues R144-A480, activated with PDK1; 1 μM ATP; read-out: Akt-1 IC50. On the procedure:
as §1
Biochemical activity of Akt1 kinase was assessed using a Luciferase-Coupled Chemiluminescent Kinase assay (LCCA) format. Kinase activity was measured as the percent ATP remaining following the kinase reaction. Remaining ATP was detected by luciferase-luciferin-coupled chemiluminescence. Specifically, the reaction was initiated by mixing test compounds, 1 μM ATP, 5 μM crosstide peptide and 1.3 nM Akt1 (baculovirus expressed human Akt1 kinase domain residues R144-A480, activated with PDK1) in a 20 uL assay buffer (20 mM Tris-HCL pH 7.5, 10 mM MgCl2, 0.01% Triton X-100, 1 mM DTT, 3 mM MnCl2). The mixture is incubated at ambient temperature for 3 hours after which 20 μL luciferase-luciferin mix is added and the chemiluminescent signal read using a Wallac Victor2 reader. The luciferase-luciferin mix consists of 50 mM HEPES, pH 7.8, 8.5 μg/mL oxalic acid (pH 7.8), 5 (or 50) mM DTT, 0.4% Triton X-100, 0.25 mg/mL coenzyme A, 63 uM AMP, 28 μg/mL luciferin and 40,000 units/mL luciferase.

In the next assay the target is T3, p70S6K (Homo sapiens, UniProt P23443, T412E).
T3 construct: human p70S6 kinase domain residues 1-421, containing a T412E mutation; made in house
Briefly: p70S6 Kinase Assay (Luciferase-Coupled Chemiluminescent Kinase assay, LCCA). To be noted: human p70S6 kinase domain residues 1-421, T412E; 5 μM ATP; read-out: p70S6K IC50. The method, boiled down:
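Luciferase-coupled chemiluminescence measured percent ATP remaining after the 2 h kinase reaction at ambient temperature, with ATP near the kinase's KM. Ten inhibitor concentrations were tested. IC50 was obtained from a Hill-equation fit.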

T3 sequence (P23443 1-421 T412E): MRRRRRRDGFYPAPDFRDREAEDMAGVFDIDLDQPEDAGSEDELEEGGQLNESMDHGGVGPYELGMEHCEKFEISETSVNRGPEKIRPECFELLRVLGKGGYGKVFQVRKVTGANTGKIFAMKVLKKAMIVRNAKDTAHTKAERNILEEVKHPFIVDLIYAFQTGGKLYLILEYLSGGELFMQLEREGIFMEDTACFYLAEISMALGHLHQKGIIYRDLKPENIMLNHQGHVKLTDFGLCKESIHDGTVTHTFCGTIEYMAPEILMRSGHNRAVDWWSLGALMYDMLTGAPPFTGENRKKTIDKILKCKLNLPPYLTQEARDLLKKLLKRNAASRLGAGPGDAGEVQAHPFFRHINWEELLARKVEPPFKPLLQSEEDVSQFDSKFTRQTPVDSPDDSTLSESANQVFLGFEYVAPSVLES
T2 sequence (P31749 144-480): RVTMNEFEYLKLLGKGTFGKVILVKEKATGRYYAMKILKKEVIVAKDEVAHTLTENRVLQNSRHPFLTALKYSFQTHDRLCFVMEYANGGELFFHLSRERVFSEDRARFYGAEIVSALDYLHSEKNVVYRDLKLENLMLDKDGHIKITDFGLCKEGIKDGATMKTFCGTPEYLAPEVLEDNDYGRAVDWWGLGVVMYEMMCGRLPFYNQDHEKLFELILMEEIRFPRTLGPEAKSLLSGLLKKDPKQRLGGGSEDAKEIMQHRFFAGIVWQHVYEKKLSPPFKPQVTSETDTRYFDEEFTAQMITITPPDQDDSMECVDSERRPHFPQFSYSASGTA

For orientation: IC50 means the concentration needed to halve the response being measured. Regarding `CSc1nc(N)nc(N(C)[C@@H](C)C(=O)Nc2cc(C(=O)NCCN3CCOCC3)cc(C(F)(F)F)c2)c1C#N` [Example 135, 3-({N-[2-amino-5-cyano-6-(methylthio)pyrimidin-4-yl]-N-methyl-L-alanyl}amino)-N-(2-morpholin-4-ylethyl)-5-(trifluoromethyl)benzamide], the results for the IC50 at PDK1, on Akt1 and on p70S6K were > 2000 nM, > 2000 nM and < 50 nM, respectively.
As to `CCOC(=O)c1sc(NC(=O)CSc2nc(N)nc(SC)c2C#N)c(C#N)c1C` [Example 28, ethyl 5-[({[2-amino-5-cyano-6-(methylthio)pyrimidin-4-yl]thio}acetyl)amino]-4-cyano-3-methylthiophene-2-carboxylate], the IC50 is > 2000 nM at PDK1, > 2000 nM on Akt1 and < 50 nM at p70S6K.
For `CSc1nc(N)nc(SCC(=O)Nc2cc(C(F)(F)F)ccn2)c1C#N` [Example 37, 2-{[2-amino-5-cyano-6-(methylthio)pyrimidin-4-yl]thio}-N-[4-(trifluoromethyl)pyridin-2-yl]acetamide], the results for the IC50 on PDK1, at Akt1 and on p70S6K were > 2000 nM, > 2000 nM and < 50 nM, respectively.
In the case of `CSc1nc(N)nc(N[C@@H](CN(C)C)C(=O)Nc2cccc(C(F)(F)F)c2)c1C#N` [Example 142, N~2~-[2-amino-5-cyano-6-(methylthio)pyrimidin-4-yl]-3-(dimethylamino)-N-[3-(trifluoromethyl)phenyl]-L-alaninamide], the IC50 on PDK1 was > 2000 nM; at Akt1, > 2000 nM; on p70S6K it was 50 to 500 nM.
Regarding `Nc1cc(SCC(=O)Nc2cccc(C(F)(F)F)c2)nc(N)n1` [Example 33, 2-[(2,6-diaminopyrimidin-4-yl)thio]-N-[3-(trifluoromethyl)phenyl]acetamide], the IC50 at PDK1 was > 2000 nM; on Akt1 it was > 2000 nM; at p70S6K it was < 50 nM.
Turning to `COc1ccc(OC)c(C(=O)CSc2nc(N)nc(SC)c2C#N)c1` [Example 30, 2-amino-4-({2-[2,5-bis(methyloxy)phenyl]-2-oxoethyl}thio)-6-(methylthio)pyrimidine-5-carbonitrile], the values for the concentration for half-maximal inhibition (IC50) on PDK1, at Akt1 and at p70S6K were > 2000 nM, > 2000 nM and < 50 nM, respectively.
With `CSc1nc(N)nc(N[C@@H](C)C(=O)Nc2cc(C(=O)NO)cc(C(F)(F)F)c2)c1C#N` [Example 141, 3-({N-[2-amino-5-cyano-6-(methylthio)pyrimidin-4yl]-L-alanyl}amino)-N-hydroxy-5-(trifluoromethyl)benzamide], the IC50 on PDK1 was > 2000 nM; on Akt1, > 2000 nM; on p70S6K it was 50 to 500 nM.
Regarding `CCOc1nc(N)nc(N(C)[C@@H](CCCCN)C(=O)Nc2cccc(C(F)(F)F)c2)c1C#N` [Example 136, N~2~-[2-amino-5-cyano-6-(ethyloxy)pyrimidin-4-yl]-N~2~-methyl-N-[3-(trifluoromethyl)phenyl]-L-lysinamide], the results for the IC50 on PDK1, on Akt1 and on p70S6K were > 2000 nM, > 2000 nM and < 50 nM, respectively.
Regarding `CSc1cc(NCC(=O)Nc2cccc(C(F)(F)F)c2)nc(N)n1` [Example 5], the results for the IC50 on PDK1, on Akt1 and at p70S6K were > 2000 nM, > 2000 nM and < 50 nM, respectively.
Take `CSc1nc(N)nc(SCC(=O)Nc2ccccn2)c1C#N` [Example 29, 2-{[2-amino-5-cyano-6-(methylthio)pyrimidin-4-yl]thio}-N-pyridin-2-ylacetamide]: the IC50 is > 2000 nM at PDK1, > 2000 nM on Akt1 and < 50 nM on p70S6K.
With `COc1nc(N)nc(NNC(=O)Nc2cccc(C(F)(F)F)c2)c1C#N` [Example 140, 2-[2-amino-5-cyano-6-(methyloxy)pyrimidin-4-yl]-N-[3-(trifluoromethyl)phenyl]hydrazinecarboxamide], the results for the IC50 on PDK1, on Akt1 and on p70S6K were > 2000 nM, > 2000 nM and 50 to 500 nM, respectively.
On to `CCCCOc1cccc(NC(=O)CSc2nc(N)nc(SC)c2C#N)c1` [Example 22, 2-{[2-amino-5-cyano-6-(methylthio)pyrimidin-4-yl]thio}-N-[3-(butyloxy)phenyl]acetamide], for which the IC50 at PDK1 is > 2000 nM; at Akt1, > 2000 nM; at p70S6K, < 50 nM.
For the molecule `CSc1nc(N)nc(SCC(=O)N(C)c2cccc(C(F)(F)F)c2)c1C#N` [Example 16, 2-{(2-amino-5-cyano-6-(methylthio)pyrimidin-4-yl]thio}-N-methyl-N-[3-(trifluoromethyl)phenyl]acetamide], the IC50 is > 2000 nM at PDK1, > 2000 nM at Akt1 and 50 to 500 nM on p70S6K.
Regarding `Cc1nc(OCC(=O)Nc2cccc(C(F)(F)F)c2)c(C#N)c(C)c1[N+](=O)[O-]` [Example 1, 2-[(3-cyano-4,6-dimethyl-5-nitropyridin-2-yl)oxy]-N-[3-(trifluoromethyl)phenyl]acetamide], the IC50 is > 2000 nM on PDK1, > 2000 nM at Akt1 and < 50 nM on p70S6K.
On to `CSc1nc(N)nc(SCC(=O)Nc2ccc(C(F)(F)F)cn2)c1C#N` [Example 4], for which the values for the IC50 on PDK1, on Akt1 and at p70S6K were > 2000 nM, > 2000 nM and < 50 nM, respectively.
Turning to `CSc1nc(N)nc(N(C)[C@@H](C)C(=O)Nc2cc(OC(F)(F)F)ccc2OCCN(C)C)c1C#N` [Example 134, N~2~-[2-amino-5-cyano-6-(methylthio)pyrimidin-4-yl]-N-{2-{[2-(dimethylamino)ethyl]oxy}-5-[(trifluoromethyl)oxy]phenyl}-N~2~-methyl-L-alaninamide], the IC50 on PDK1 is > 2000 nM; on Akt1 it was > 2000 nM; on p70S6K it was < 50 nM.
For `CSc1nc(N)nc(N(C)[C@@H](C)C(=O)Nc2cccc(OC(F)(F)F)c2)c1C#N` [Example 132, N~2~-[2-amino-5-cyano-6-(methylthio)pyrimidin-4-yl]-N~2~-methyl-N-{3-[(trifluoromethyl)oxy]phenyl}-L-alaninamide], the figures for the IC50 on PDK1, at Akt1 and on p70S6K were > 2000 nM, > 2000 nM and < 50 nM, respectively.
Take `CSc1nc(N)nc(NCC(=O)Nc2cccc(C(F)(F)F)c2)c1C#N` [Example 20, N^2-[2-amino-5-cyano-6-(methylthio)pyrimidin-4-yl]-N-[3-(trifluoromethyl)phenyl]glycinamide]: the IC50 was > 2000 nM on PDK1, > 2000 nM at Akt1 and 50 to 500 nM at p70S6K.
Take `CSc1nc(N)nc(SC2CCN(c3cccc(C(F)(F)F)c3)C2=O)c1C#N` (stereo not drawn) [Example 35, 2-amino-4-(methylthio)-6-({2-oxo-1-[3-(trifluoromethyl)phenyl]pyrrolidin-3-yl}thio)pyrimidine-5-carbonitrile]: the IC50 on PDK1 was > 2000 nM; on Akt1, > 2000 nM; at p70S6K, < 50 nM.
On to `CSc1nc(N)nc(SCC(=O)Nc2cccc(C(F)(F)F)n2)c1C#N` [Example 36, 2-{[2-amino-5-cyano-6-(methylthio)pyrimidin-4-yl]thio}-N-[6-(trifluoromethyl)pyridin-2-yl]acetamide], for which the IC50 at PDK1 was > 2000 nM; at Akt1, > 2000 nM; at p70S6K it was < 50 nM.
